Molecular target: T1, chimeric human H3 receptor (Homo sapiens, UniProt Q9Y5N1)
T1 construct: made in house; host or cells: Sf9 insect cells (baculovirus); P2 membrane preparation
Experiment: Chimeric human H3 receptor GTP binding assay (agonist-stimulated GTP-gamma35S binding, Example 7)
Assay type: biochemical
Excerpt: This Example illustrates a representative assay for evaluating agonist-stimulated GTP-gamma^35S binding (“GTP binding”) activity. […] This agonist-stimulated GTP binding activity can also be used to detect partial agonism mediated by antagonist compounds. A compound analyzed in this assay is referred to herein as a “test compound.”
Four independent baculoviral stocks (one directing the expression of the chimeric human H3 receptor and three directing the expression of each of the three subunits of a heterotrimeric G-protein) are used to infect a culture of Sf9 cells as described above. P2 membranes are prepared as described above, and agonist-stimulated GTP binding on the P2 membranes is assessed using histamine (Sigma Chemical Co., St. Louis, Mo.) as agonist in order to ascertain that the receptor/G-protein-alpha-beta-gamma combination(s) yield a functional response as measured by GTP binding. P2 membranes are resuspended by Dounce homogenization (tight pestle) in GTP binding assay buffer (50 mM Tris pH 7.4, 120 mM NaCl, 5 mM MgCl2, 2 mM EGTA, 1 mg/ml BSA, 0.2 mg/ml bacitracin, 0.02 mg/ml aprotinin, 0.01 mg/ml saponin, 10 μM GDP) and added to assay tubes at a concentration of 35 μg protein/reaction tube. After adding increasing doses of histamine at concentrations ranging from 10^−12 M to 10^−5 M, reactions are initiated by the addition of […] GTP-gamma^35S (PERKIN ELMER; Boston, Mass.) with a final assay volume of 0.20 ml. In competition experiments, non-radiolabeled test compounds are added to separate reactions at concentrations ranging from 10^−10 M to 10^−6 M along with 1 μM histamine to yield a final volume of 0.20 ml.
Neutral antagonists are antagonists that are substantially free of inherent agonist activity, and include those test compounds that reduce the histamine-stimulated GTP binding activity towards, but not below, baseline levels. In contrast, in the absence of added histamine, inverse agonists reduce the GTP binding activity of the receptor-containing membranes below baseline.
After a 60-min incubation at room temperature, reactions are terminated by vacuum filtration over WHATMAN GF/C filters (pre-soaked in wash buffer, 0.1% BSA) followed by washing with ice-cold wash buffer (50 mM Tris pH 7.4, 120 mM NaCl). The amount of receptor-bound (and thereby membrane-bound) GTP-gamma^35S is determined by measuring the filter-bound radioactivity, preferably by liquid scintillation spectrometry of the washed filters. Non-specific binding is determined in parallel assays including 10 μM unlabeled GTP-gammaS and typically represents less than 5 percent of total binding. Data is expressed as percent above basal (baseline). The results of GTP binding experiments are analyzed using SIGMAPLOT software (SPSS Inc., Chicago, Ill.). IC50 values are calculated by non-linear regression analysis of dose-response curves using Kaleidograph (Synergy Software, Reading, Pa.).
Alternatively the data is analyzed as follows. First, the average bound radioactivity from negative control wells (no agonist) is subtracted from the bound radioactivity detected for each of the other experimental wells. Second, average bound radioactivity is calculated for the positive control wells (agonist wells). Then, percent inhibition for each compound tested is calculated using the equation:
Calculated IC50 values are converted to K1 values by the Cheng-Prusoff correction (Cheng and Prusoff (1973) Biochem. Pharmacol. 22(23):3099-3108). Accordingly, the following equation: Ki=IC50/(1+[L]/EC50) is used, where [L] is the histamine concentration in the GTP binding assay, and EC50 is the concentration of histamine producing a 50% response, as determined by a dose-response analysis using concentrations of histamine ranging from 10^−10 M to 10^−6M. […]

[1] = Table II, "*" = Ki in assay of Example 7 less than 1 micromolar
[2] = assay of Example 7, "*" in Ki of Table II
[3] = Table I, P2 membranes of Sf9 cells, 1 μM histamine as agonist, Ki from IC50 by Cheng-Prusoff
[4] = Table II "Ki", symbol *, assay of Example 7

T1 sequence (Q9Y5N1 with tags, fused parts or gaps): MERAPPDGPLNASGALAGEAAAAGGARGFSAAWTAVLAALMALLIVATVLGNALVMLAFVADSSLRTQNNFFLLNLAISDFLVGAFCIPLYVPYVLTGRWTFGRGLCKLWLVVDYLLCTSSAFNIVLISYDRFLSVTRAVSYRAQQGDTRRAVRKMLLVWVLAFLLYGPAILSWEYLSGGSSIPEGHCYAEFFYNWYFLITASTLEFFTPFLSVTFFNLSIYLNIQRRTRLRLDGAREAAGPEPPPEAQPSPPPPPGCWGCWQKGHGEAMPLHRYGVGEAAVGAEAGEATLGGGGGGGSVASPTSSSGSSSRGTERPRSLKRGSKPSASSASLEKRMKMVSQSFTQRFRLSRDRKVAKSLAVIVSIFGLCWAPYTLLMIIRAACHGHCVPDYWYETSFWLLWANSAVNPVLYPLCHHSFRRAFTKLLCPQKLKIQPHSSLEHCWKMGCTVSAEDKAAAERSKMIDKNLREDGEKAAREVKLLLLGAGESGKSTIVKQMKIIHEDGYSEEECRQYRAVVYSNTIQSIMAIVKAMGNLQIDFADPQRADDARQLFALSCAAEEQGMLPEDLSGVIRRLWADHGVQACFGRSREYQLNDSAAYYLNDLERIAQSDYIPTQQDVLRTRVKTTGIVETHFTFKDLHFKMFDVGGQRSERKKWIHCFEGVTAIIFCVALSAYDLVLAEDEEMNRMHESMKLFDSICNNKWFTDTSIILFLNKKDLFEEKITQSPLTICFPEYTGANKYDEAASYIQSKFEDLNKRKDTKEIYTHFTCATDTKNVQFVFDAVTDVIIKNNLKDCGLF

Row | Ki [1] [nM] | Ki [2] [nM] | SMILES | further results
1 | < 1000 | – | O=C(CN1CCc2nn(-c3ccc(Cl)nn3)cc2C1)N1CCN(C2CCC2)CC1 [Compound 201, 2-(6-chloropyridazin-3-yl)-5-[2-(4-cyclobutylpiperazin-1-yl)-2-oxoethyl]-4,5,6,7-tetrahydro-2H-pyrazolo[4,3-c]pyridine] | –
2 | – | < 1000 | COCc1ncc2c(n1)CCN(CC(=O)N1CCN(C3CCC3)CC1)C2 [Compound 286, 6-[2-(4-cyclobutylpiperazin-1-yl)-2-oxoethyl]-2-(methoxymethyl)-5,6,7,8-tetrahydropyrido[4,3-d]pyrimidine] | –
3 | – | < 1000 | CCc1cccc(-c2nc3c(s2)CN(CC(=O)N2CCN(C4CCC4)CC2)CC3)c1 [Compound 313, 5-[2-(4-cyclobutylpiperazin-1-yl)-2-oxoethyl]-2-(3-ethylphenyl)-4,5,6,7-tetrahydro[1,3]thiazolo [5,4-c]pyridine] | –
4 | < 1000 | – | O=C(CN1CCc2nc(C3CC3)ncc2C1)N1CCN(C2CCC2)CC1 [Compound 276, 6-[2-(4-cyclobutylpiperazin-1-yl)-2-oxoethyl]-2-cyclopropyl-5,6,7,8-tetrahydropyrido[4,3-d]pyrimidine] | –
5 | – | < 1000 | O=C(CN1CCc2nc(-c3ccc(Cl)cc3Cl)sc2C1)N1CCN(C2CCC2)CC1 [Compound 359, 5-[2-(4-cyclobutylpiperazin-1-yl)-2-oxoethyl]-2-(2,4-dichlorophenyl)-4,5,6,7-tetrahydro[1,3]thiazolo [5,4-c]pyridine] | –
6 | – | – | NC(=O)C1CCN(c2ncc3c(n2)CCN(CC(=O)N2CCN(C4CCC4)CC2)C3)CC1 [Compound 691, 1-{6-[2-(4-cyclobutylpiperazin-1-yl)-2-oxoethyl]-5,6,7,8-tetrahydropyrido[4,3-d]pyrimidin-2-yl}piperidine-4-carboxamide] | Ki (Table II, assay of Example 7): < 1000 nM
7 | – | – | O=C(CN1CCc2ncccc2C1)N1CCN(C2CCC2)CC1 [Compound 65, 6-[2-(4-cyclobutylpiperazin-1-yl)-2-oxoethyl]-5,6,7,8-tetrahydro-1,6-naphthyridine] | Ki [3]: < 1000 nM
8 | < 1000 | – | O=C(CN1CCc2nc(Cl)ccc2C1)N1CCN(C2CCC2)CC1 [Compound 168, 2-chloro-6-[2-(4-cyclobutylpiperazin-1-yl)-2-oxoethyl]-5,6,7,8-tetrahydro-1,6-naphthyridine] | –
9 | < 1000 | – | O=C(CN1CCc2nccnc2C1)N1CCN(C2CCC2)CC1 [Compound 228, 6-[2-(4-cyclobutylpiperazin-1-yl)-2-oxoethyl]-5,6,7,8-tetrahydropyrido[3,4-b]pyrazine] | –
10 | – | < 1000 | O=C(CN1CCc2nc(-c3ccc(Cl)c(C(F)(F)F)c3)sc2C1)N1CCN(C2CCC2)CC1 [Compound 373, 2-[4-chloro-3-(trifluoromethyl)phenyl]-5-[2-(4-cyclobutylpiperazin-1-yl)-2-oxoethyl]-4,5,6,7-tetrahydro[1,3]thiazolo [5,4-c]pyridine] | –
11 | – | < 1000 | O=C(CN1CCc2cc(-c3cncnc3)ccc2C1)N1CCN(C2CCCCC2)CC1 [Compound 393, 2-[2-(4-cyclohexylpiperazin-1-yl)-2-oxoethyl]-6-pyrimidin-5-yl-1,2,3,4-tetrahydroisoquinoline] | –
12 | < 1000 | – | Cn1cccc(-c2ccc3c(c2)CCN(CC(=O)N2CCN(C4CCC4)CC2)C3)c1=O [Compound 212, 3-{2-[2-(4-cyclobutylpiperazin-1-yl)-2-oxoethyl]-1,2,3,4-tetrahydroisoquinolin-6-yl}-1-methylpyridin-2(1H)-one] | –
13 | – | – | CCOc1cccc(-c2ccc3c(c2)CCN(CC(=O)N2CCN(C4CCC4)CC2)C3)c1 [Compound 482, 2-[2-(4-cyclobutylpiperazin-1-yl)-2-oxoethyl]-6-(3-ethoxyphenyl)-1,2,3,4-tetrahydroisoquinoline] | Ki [4]: < 1000 nM
14 | < 1000 | – | O=C(CN1CCc2nn(-c3cccnn3)cc2C1)N1CCN(C2CCC2)CC1 [Compound 255, 5-[2-(4-cyclobutylpiperazin-1-yl)-2-oxoethyl]-2-pyridazin-3-yl-4,5,6,7-tetrahydro-2H-pyrazolo[4,3-c]pyridine] | –
15 | – | < 1000 | Cc1cc(C)c(-c2nc3c(s2)CN(CC(=O)N2CCN(C4CCC4)CC2)CC3)c(C)c1 [Compound 366, 5-[2-(4-cyclobutylpiperazin-1-yl)-2-oxoethyl]-2-mesityl-4,5,6,7-tetrahydro[1,3]thiazolo [5,4-c]pyridine] | –
16 | – | – | CC(C)CC1c2ccccc2CCN1CC(=O)N1CCN(C(C)C)CC1 (centres unmarked) [Compound 57, 1-isobutyl-2-[2-(4-isopropylpiperazin-1-yl)-2-oxoethyl]-1,2,3,4-tetrahydroisoquinoline] | Ki [3]: < 1000 nM
17 | – | – | COc1ccc(-c2ccc3c(c2)CCN(CC(=O)N2CCN(C4CCC4)CC2)C3)cc1OC [Compound 524, 2-[2-(4-cyclobutylpiperazin-1-yl)-2-oxoethyl]-6-(3,4-dimethoxyphenyl)-1,2,3,4-tetrahydroisoquinoline] | Ki [4]: < 1000 nM
18 | < 1000 | – | O=C(CN1CCc2cc(-n3cc4ccccc4n3)ccc2C1)N1CCN(C2CCC2)CC1 [Compound 229, 2-[2-(4-cyclobutylpiperazin-1-yl)-2-oxoethyl]-6-(2H-indazol-2-yl)-1,2,3,4-tetrahydroisoquinoline] | –
19 | – | < 1000 | O=C(CN1CCc2nc(-c3ccc(F)cc3F)sc2C1)N1CCN(C2CCC2)CC1 [Compound 348, 5-[2-(4-cyclobutylpiperazin-1-yl)-2-oxoethyl]-2-(2,4-difluorophenyl)-4,5,6,7-tetrahydro[1,3]thiazolo [5,4-c]pyridine] | –
20 | < 1000 | – | CCOC(=O)c1cnc2c(c1)CCN(CC(=O)N1CCN(C3CCC3)CC1)C2 [Compound 116, ethyl 7-[2-(4-cyclobutylpiperazin-1-yl)-2-oxoethyl]-5,6,7,8-tetrahydro-1,7-naphthyridine-3-carboxylate] | –
21 | – | < 1000 | CS(=O)(=O)c1cccc(-c2ccc3c(c2)CCN(CC(=O)N2CCN(C4CCCCC4)CC2)C3)c1 [Compound 395, 2-[2-(4-cyclohexylpiperazin-1-yl)-2-oxoethyl]-6-[3-(methylsulfonyl)phenyl]-1,2,3,4-tetrahydroisoquinoline] | –
22 | < 1000 | – | O=C(CN1CCc2cc(N3CCCCC3=O)ccc2C1)N1CCN(C2CCC2)CC1 [Compound 211, 1-{2-[2-(4-cyclobutylpiperazin-1-yl)-2-oxoethyl]-1,2,3,4-tetrahydroisoquinolin-6-yl}piperidin-2-one] | –
23 | – | – | CS(=O)(=O)c1cccc(-c2ccc3c(c2)CCN(CC(=O)N2CCN(C4CCC4)CC2)C3)c1 [Compound 74, 2-[2-(4-cyclobutylpiperazin-1-yl)-2-oxoethyl]-6-[3-(methylsulfonyl)phenyl]-1,2,3,4-tetrahydroisoquinoline] | Ki [3]: < 1000 nM
24 | < 1000 | – | O=C(CN1CCc2cc(-c3cnccn3)ccc2C1)N1CCN(C2CCC2)CC1 [Compound 128, 2-[2-(4-cyclobutylpiperazin-1-yl)-2-oxoethyl]-6-pyrazin-2-yl-1,2,3,4-tetrahydroisoquinoline] | –
25 | < 1000 | – | O=C(CN1CCc2nc(-c3cccnn3)sc2C1)N1CCN(C2CCC2)CC1 [Compound 279, 5-[2-(4-cyclobutylpiperazin-1-yl)-2-oxoethyl]-2-pyridazin-3-yl-4,5,6,7-tetrahydro[1,3]thiazolo [5,4-c]pyridine] | –
26 | – | < 1000 | CCc1ccc(-c2nc3c(s2)CN(CC(=O)N2CCN(C4CCC4)CC2)CC3)cc1 [Compound 311, 5-[2-(4-cyclobutylpiperazin-1-yl)-2-oxoethyl]-2-(4-ethylphenyl)-4,5,6,7-tetrahydro[1,3]thiazolo [5,4-c]pyridine] | –
